According to PubChem BioAssay AID2060882 (Molecular Pharmacology Branch, DTP, NCI, 2025):

Tested on: 898857-211-R-J1-PDC complex spheroids, growth % test/control
Assay: Anticancer human tumor 898857-211-R-J1-PDC patient-derived melanoma cell line growth inhibition [RAS]
Conditions: for viability, T/C: stronger effect = lower value
Procedure, shortened: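 Agents were tested in combination matrices in half-log decrements from a top concentration at or near clinical Cmax (10 microM if undetermined). Targets were multi-cell spheroids of tumour lines plus HUVEC and MSC stromal cells.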

[1] = curve of first compound, second compound 0.00316 µM
[2] = curve of first compound, second compound 0.01 µM
[3] = curve of first compound, second compound 0.0316 µM
[4] = curve of first compound, second compound 0.1 µM
[5] = curve of first compound, second compound 0.316 µM
[6] = curve of first compound, second compound 1 µM
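Also: spheroids exposed to compound for seven days before readout.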
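For viability, T/C in this document: 100% = DMSO vehicle control wells.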

CC1(C)CCC(Nc2ncc(C(F)(F)F)c(-c3c[nH]c4c(P(C)(C)=O)c(C#N)ccc34)n2)CN1 (stereo not given) + C=CC(=O)N1CCN(c2nc(OCC3CCCN3C)nc3c(F)c(-c4nc(N)cc(C)c4C(F)(F)F)c(Cl)cc23)C(C)C1
IC50 [1]: 5.36 nM | IC50 [2]: 5.18 nM | IC50 [3]: 4.69 nM | IC50 [4]: 5.81 nM | IC50 [5]: 5.77 nM | IC50 [6]: 4.52 nM | viability, T/C (second compound 0.00316 µM, first compound 0.000949 µM): 96.9% | viability, T/C (second compound 0.00316 µM, first compound 0.003 µM): 67.8% | viability, T/C (second compound 0.00316 µM, first compound 0.00949 µM): 32.1% | viability, T/C (second compound 0.00316 µM, first compound 0.03 µM): 20.6% | viability, T/C (second compound 0.00316 µM, first compound 0.0949 µM): 16.4% | viability, T/C (second compound 0.00316 µM, first compound 0.3 µM): 14.5% | viability, T/C (second compound 0.01 µM, first compound 0.000949 µM): 96.9% | viability, T/C (second compound 0.01 µM, first compound 0.003 µM): 66.3% | viability, T/C (second compound 0.01 µM, first compound 0.00949 µM): 32.1% | viability, T/C (second compound 0.01 µM, first compound 0.03 µM): 19.5% | viability, T/C (second compound 0.01 µM, first compound 0.0949 µM): 18.5% | viability, T/C (second compound 0.01 µM, first compound 0.3 µM): 17.8% | viability, T/C (second compound 0.0316 µM, first compound 0.000949 µM): 91.3% | viability, T/C (second compound 0.0316 µM, first compound 0.003 µM): 61.3% | viability, T/C (second compound 0.0316 µM, first compound 0.00949 µM): 32% | viability, T/C (second compound 0.0316 µM, first compound 0.03 µM): 22% | viability, T/C (second compound 0.0316 µM, first compound 0.0949 µM): 17.4% | viability, T/C (second compound 0.0316 µM, first compound 0.3 µM): 17.1% | viability, T/C (second compound 0.1 µM, first compound 0.000949 µM): 91.8% | viability, T/C (second compound 0.1 µM, first compound 0.003 µM): 74.7% | viability, T/C (second compound 0.1 µM, first compound 0.00949 µM): 32% | viability, T/C (second compound 0.1 µM, first compound 0.03 µM): 14.9% | viability, T/C (second compound 0.1 µM, first compound 0.0949 µM): 17.6% | viability, T/C (second compound 0.1 µM, first compound 0.3 µM): 15.8% | viability, T/C (second compound 0.316 µM, first compound 0.000949 µM): 101% | viability, T/C (second compound 0.316 µM, first compound 0.003 µM): 70.5% | viability, T/C (second compound 0.316 µM, first compound 0.00949 µM): 33.8% | viability, T/C (second compound 0.316 µM, first compound 0.03 µM): 21.8% | viability, T/C (second compound 0.316 µM, first compound 0.0949 µM): 17.8% | viability, T/C (second compound 0.316 µM, first compound 0.3 µM): 15% | viability, T/C (second compound 1 µM, first compound 0.000949 µM): 98.9% | viability, T/C (second compound 1 µM, first compound 0.003 µM): 61.3% | viability, T/C (second compound 1 µM, first compound 0.00949 µM): 29.3% | viability, T/C (second compound 1 µM, first compound 0.03 µM): 18.3% | viability, T/C (second compound 1 µM, first compound 0.0949 µM): 15% | viability, T/C (second compound 1 µM, first compound 0.3 µM): 12.2%

CC(C)n1nc(-c2ccc3oc(N)nc3c2)c2c(N)ncnc21 + C=CC(=O)N1CCN(c2nc(OCC3CCCN3C)nc3c(F)c(-c4nc(N)cc(C)c4C(F)(F)F)c(Cl)cc23)C(C)C1
IC50 [1]: 28.8 nM | IC50 [2]: 33.6 nM | IC50 [3]: 26.9 nM | IC50 [4]: 35 nM | IC50 [5]: 34.5 nM | IC50 [6]: 37.9 nM | viability, T/C (second compound 0.00316 µM, first compound 0.000316 µM): 103% | viability, T/C (second compound 0.00316 µM, first compound 0.001 µM): 96.3% | viability, T/C (second compound 0.00316 µM, first compound 0.00316 µM): 99.6% | viability, T/C (second compound 0.00316 µM, first compound 0.01 µM): 75.9% | viability, T/C (second compound 0.00316 µM, first compound 0.0316 µM): 48.5% | viability, T/C (second compound 0.00316 µM, first compound 0.1 µM): 19.9% | viability, T/C (second compound 0.01 µM, first compound 0.000316 µM): 107% | viability, T/C (second compound 0.01 µM, first compound 0.001 µM): 95.1% | viability, T/C (second compound 0.01 µM, first compound 0.00316 µM): 92.1% | viability, T/C (second compound 0.01 µM, first compound 0.01 µM): 77.9% | viability, T/C (second compound 0.01 µM, first compound 0.0316 µM): 49.9% | viability, T/C (second compound 0.01 µM, first compound 0.1 µM): 21.3% | viability, T/C (second compound 0.0316 µM, first compound 0.000316 µM): 108% | viability, T/C (second compound 0.0316 µM, first compound 0.001 µM): 99.9% | viability, T/C (second compound 0.0316 µM, first compound 0.00316 µM): 91.7% | viability, T/C (second compound 0.0316 µM, first compound 0.01 µM): 77.5% | viability, T/C (second compound 0.0316 µM, first compound 0.0316 µM): 44.2% | viability, T/C (second compound 0.0316 µM, first compound 0.1 µM): 20.4% | viability, T/C (second compound 0.1 µM, first compound 0.000316 µM): 104% | viability, T/C (second compound 0.1 µM, first compound 0.001 µM): 102% | viability, T/C (second compound 0.1 µM, first compound 0.00316 µM): 97.4% | viability, T/C (second compound 0.1 µM, first compound 0.01 µM): 85% | viability, T/C (second compound 0.1 µM, first compound 0.0316 µM): 52.7% | viability, T/C (second compound 0.1 µM, first compound 0.1 µM): 19.8% | viability, T/C (second compound 0.316 µM, first compound 0.000316 µM): 116% | viability, T/C (second compound 0.316 µM, first compound 0.001 µM): 103% | viability, T/C (second compound 0.316 µM, first compound 0.00316 µM): 109% | viability, T/C (second compound 0.316 µM, first compound 0.01 µM): 89.3% | viability, T/C (second compound 0.316 µM, first compound 0.0316 µM): 52.4% | viability, T/C (second compound 0.316 µM, first compound 0.1 µM): 20.8% | viability, T/C (second compound 1 µM, first compound 0.000316 µM): 122% | viability, T/C (second compound 1 µM, first compound 0.001 µM): 115% | viability, T/C (second compound 1 µM, first compound 0.00316 µM): 111% | viability, T/C (second compound 1 µM, first compound 0.01 µM): 84.5% | viability, T/C (second compound 1 µM, first compound 0.0316 µM): 56% | viability, T/C (second compound 1 µM, first compound 0.1 µM): 22.7%

CCn1c(-c2cccnc2C(C)OC)c2c3cc(ccc31)N1CCOC(CC(NC(=O)C(C(C)C)N(C)C(=O)C3(F)CCN(C(=O)C#CC(C)(C)N(C)C)CC3)C(=O)N3CCCC(N3)C(=O)OCC(C)(C)C2)C1 (stereo not given)
viability, T/C (compound 0.000949 µM): 110% [middle of 6 runs] | viability, T/C (compound 0.00949 µM): 112% [middle of 6 runs] | viability, T/C (compound 0.03 µM): 103% [middle of 6 runs] | viability, T/C (compound 0.0949 µM): 92.8% [middle of 6 runs] | viability, T/C (compound 0.3 µM): 81.3% [middle of 6 runs] | IC50 (compound alone, run of 08/20/2024): > 300 nM
